Earlier results in publication PMC3665737 (Biochimica et biophysica acta, 2013).
Where a SMILES comes first, the peptide text is derived from it. [ ]: non-standard residue; d: D form. Nle = CCCC[C@H](N)C(=O)O

Legend:
[1] = tested on: PKA (C subunit); details: ALLN 500 μM, 30 min, 37 °C, ref [15]; for calpain dependence of induced PKA activity (effect of ALLN): oligomycin 5 μM, rotenone 10 μM, CCCP 5 μM, sodium azide 2 mM
[2] = tested on: PKA; details: peptides 1 - 3, with 14-3-3 domain; ref [14]
[3] = tested on: regulatory subunits (RI and RII) of PKA; details: bovine heart mitochondria exposed to digitonin; ref [15]
[4] = tested on: mitochondrial calpain; details: bovine heart mitochondria; substrate N-succinyl-Leu-Tyr-7-amido-4-methylcoumarin; ref [15]
[5] = tested on: R subunit; details: isolated R subunit; 10 μM CaCl2, 37 °C, 20 min; ref [15]
[6] = tested on: C subunit; details: isolated C subunit; Ca^2+ ≥ 100 μM, 37 °C, 20 min; ref [15]
[7] = tested on: R2C2 holoenzyme; details: 100 μM CaCl2, 0.5, 1.5, and 2.0 h, western blot, ref [15]

Molecule: CCCC[C@@H](C=O)NC(=O)[C@H](CC(C)C)NC(=O)[C@H](CC(C)C)NC(C)=O [ALLN, N-acetyl-Leu-Leu-Nle-al] (Ac-Leu-Leu-[Nle]-aldehyde)
- attenuation of PKA activity induced by rotenone, azide and CCCP ([1]; western blot): attenuated

Molecule: CCCCc1ccc(Nc2ccc(Nc3ccc(CCCC)cc3S(=O)(=O)[O-])c3c2C(=O)c2ccccc2C3=O)c(S(=O)(=O)[O-])c1.[Na+].[Na+] [Acid green 27]
- PKA-induced fluorescence increase with quencher [2]: dramatic PKA-induced fluorescence increase

Molecule: N#CC(C#N)=NNc1cccc(Cl)c1 [CCCP, chlorophenylhydrazone]
- calpain dependence of induced PKA activity (effect of ALLN) [1]: attenuated by ALLN

Molecule: [N-]=[N+]=[N-].[Na+] [azide, sodium azide]
- calpain dependence of induced PKA activity (effect of ALLN) [1]: attenuated by ALLN

Molecule: C[C@@H]1CC[C@@]2(OC1)O[C@H]1[C@@H](O)[C@H]3[C@@H]4CC[C@H]5C[C@@H](O[C@@H]6O[C@H](CO)[C@H](O[C@@H]7O[C@H](CO)[C@@H](O)[C@H](O[C@@H]8OC[C@@H](O)[C@H](O)[C@H]8O)[C@H]7O[C@@H]7O[C@H](CO)[C@H](O)[C@H](O[C@@H]8O[C@H](CO)[C@@H](O)[C@H](O)[C@H]8O)[C@H]7O)[C@H](O)[C@H]6O)[C@H](O)C[C@]5(C)[C@H]4CC[C@]3(C)[C@H]1[C@@H]2C [digitonin]
- C subunit proteolysis [3]: the catalytic subunit (C) remained intact
- activation of mitochondrial calpain [4]: direct activation of mitochondrial calpain

Molecule: CC[C@H]1/C=C/C=C/C[C@@H](C)[C@H](O)[C@@](C)(O)C(=O)[C@@H](C)[C@H](O)[C@@H](C)C(=O)[C@@H](C)[C@H](O)[C@@H](C)/C=C/C(=O)O[C@@H]2[C@H](C)[C@H](CC1)O[C@]1(CC[C@H](C)[C@H](C[C@@H](C)O)O1)[C@H]2C [oligomycin]
- calpain dependence of induced PKA activity (effect of ALLN) [1]: calpain independent

Molecule: C=C(C)[C@H]1Cc2c(ccc3c2O[C@@H]2COc4cc(OC)c(OC)cc4[C@@H]2C3=O)O1 [rotenone]
- calpain dependence of induced PKA activity (effect of ALLN) [1]: attenuated by ALLN

B1: calpain I: Ca^2+-activated protease (protein, UniProt P07384 2-714; P04632 1-268, looked up)
Calpain-1 catalytic subunit: SEEIITPVYCTGVSAQVQKQRARELGLGRHENAIKYLGQDYEQLRVRCLQSGTLFRDEAFPPVPQSLGYKDLGPNSSKTYGIKWKRPTELLSNPQFIVDGATRTDICQGALGDCWLLAAIASLTLNDTLLHRVVPHGQSFQNGYAGIFHFQLWQFGEWVDVVVDDLLPIKDGKLVFVHSAEGNEFWSALLEKAYAKVNGSYEALSGGSTSEGFEDFTGGVTEWYELRKAPSDLYQIILKALERGSLLGCSIDISSVLDMEAITFKKLVKGHAYSVTGAKQVNYRGQVVSLIRMRNPWGEVEWTGAWSDSSSEWNNVDPYERDQLRVKMEDGEFWMSFRDFMREFTRLEICNLTPDALKSRTIRKWNTTLYEGTWRRGSTAGGCRNYPATFWVNPQFKIRLDETDDPDDYGDRESGCSFVLALMQKHRRRERRFGRDMETIGFAVYEVPPELVGQPAVHLKRDFFLANASRARSEQFINLREVSTRFRLPPGEYVVVPSTFEPNKEGDFVLRFFSEKSAGTVELDDQIQANLPDEQVLSEEEIDENFKALFRQLAGEDMEISVKELRTILNRIISKHKDLRTKGFSLESCRSMVNLMDRDGNGKLGLVEFNILWNRIRNYLSIFRKFDLDKSGSMSAYEMRMAIESAGFKLNKKLYELIITRYSEPDLAVDFDNFVCCLVRLETMFRFFKTLDTDLDGVVTFDLFKWLQLTMFA
Calpain small subunit 1: MFLVNSFLKGGGGGGGGGGGLGGGLGNVLGGLISGAGGGGGGGGGGGGGGGGGGGGTAMRILGGVISAISEAAAQYNPEPPPPRTHYSNIEANESEEVRQFRRLFAQLAGDDMEVSATELMNILNKVVTRHPDLKTDGFGIDTCRSMVAVMDSDTTGKLGFEEFKYLWNNIKRWQAIYKQFDTDRSGTICSSELPGAFEAAGFHLNEHLYNMIIRRYSDESGNMDFDNFISCLVRLDAMFRAFKSLDKDGTGQIQVNIQEWLQLTMYS
- R subunit digestion [5]: selectively digested
- C subunit digestion [6]: partial proteolysis
- subunit proteolysis in holoenzyme [7]: proteolysis of the R subunit, but not the C subunit
